Format in all cases: in vivo, rat
In experiment [1] the test system is urethane-anesthetized female rats. Kind of experiment: Leak point pressure by abdominal wall-electrically stimulating method, serotonin 5-HT receptor agonists (Example 3). Conditions: for leak point pressure after drug administration / leak point pressure increase / leak point pressure before drug administration: i.v., mean ± SEM; for leak point pressure before drug administration: baseline. A digest of the protocol:
(§1)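 Urethane-anesthetized SD female rats with T8-9 spinal transection and unilateral iliococcygeus/pubococcygeus nerve cut; abdominal wall stimulated (2.5-50 V, 0.5 ms, 50 Hz, 1 s) and lowest peak bladder pressure giving leakage taken as leak point pressure, before vs after i.v. agonist. Antagonists RS-102221 or SB221284 (DMA/PEG400, 0.5 ml/kg i.v.) given 5 min before WAY-161503 or WAY-163909.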

The test system is the same in experiment [2]. Kind of experiment: Antagonism of the leak point pressure increase by WAY-161503 / WAY-163909, abdominal wall-electrically stimulating method (Example 3). Conditions: agonist 0.3 mg/kg, i.v., antagonist: solvent, mean ± SEM. A digest of the protocol: as §1
Experiment [3] has the same test system. Description: Leak point pressure by abdominal wall electrostimulation, rats with nerve to iliococcygeus/pubococcygeus muscle transected on one side (Example 2). Conditions: for leak point pressure after drug administration / leak point pressure increase / leak point pressure before drug administration: i.v., mean ± SEM; for leak point pressure before drug administration: baseline. As to the method: SD female rats (body weight 180-350 g) were anesthetized with urethane (Wako Pure Chemical Industries, Ltd.), and the spinal cord was cut at T8-9 level to eliminate the reflex voiding. In addition, the nerve to the iliococcygeus muscle/pubococcygeus muscle on the one side was transected. During operation, halothane (Takeda Pharmaceutical Company Limited) anesthesia was added when necessary. A catheter (PE-90, Clay Adams) was inserted into the bladder and secured with a ligature, and the incised part of each of the abdominal muscle and skin was closed with sutures. The abdominal skin near the diaphragm was incised at two left and right positions to newly expose the abdominal muscle. An Evans Blue dye (Merck) solution was injected into the bladder, and the bladder volume was adjusted to 0.2-0.3 ml. The bladder catheter was connected to a pressure transducer, and the signals of the transducer were sent to a computer via an amplifier (blood pressure amplification unit AP-641G; NIHON KOHDEN) and an analog-to-digital converter (BIOPAC; MP100), and recorded on a hard disc. The data were analyzed on a computer using software (BIOPAC; AcqKnowledge). The exposed abdominal muscle was electrostimulated using an electrostimulator (SEN-3301; NIHON KODEN) and an isolator (SS-202J; NIHON KODEN), and the presence or absence of incontinence from the urethral orifice was observed. The electrostimulation was applied at a voltage of 3-50 V, duration of 0.05-0.5 milisec, and frequency 50 Hz for 1 sec, thereby gradually increasing the intravesical pressure. The peak intravesical pressure during stimulation of the abdominal wall was measured and, of the trials with observed incontinence, the lowest peak intravesical pressure was defined as the leak point pressure. The leak point pressure was compared before and after the duloxetine and midodrine administration. Duloxetine was dissolved in […] (DMA)/polyethylene glycol 400 (PEG400) (1:1), and intravenously administered at 0.5 ml/kg. Midodrine (hydrochloride, Sigma) was dissolved in saline and intravenously administered at 1 ml/kg.

Consider `O=C1Nc2cc(Cl)c(Cl)cc2N2CCNCC12` (stereo not drawn) [WAY-161503], for which the “leak point pressure after drug administration” value in experiment [1] (0.03 mg/kg) worked out at 58.7 ± 6.8 cmH2O; in experiment [1] (0.1 mg/kg), 59.5 ± 4.9 cmH2O; in experiment [1] (0.3 mg/kg) it was 68.1 ± 6.8 cmH2O; in experiment [1] (1 mg/kg) it was 80.1 ± 2.7 cmH2O; in experiment [2], 76.6 ± 5.4 cmH2O. Besides, the “leak point pressure increase” value amounted to 9.7 ± 2.9 cmH2O in experiment [1] (0.03 mg/kg); 12.6 ± 2.8 cmH2O in experiment [1] (0.1 mg/kg); 19.6 ± 4.4 cmH2O in experiment [1] (0.3 mg/kg); 30.7 ± 3.5 cmH2O in experiment [1] (1 mg/kg); 27.8 ± 2.8 cmH2O in experiment [2]. The “leak point pressure before drug administration” value in experiment [1] (dose group 0.03 mg/kg) is given as 49.0 ± 8.0 cmH2O; in experiment [1] (dose group 0.1 mg/kg), 46.9 ± 4.6 cmH2O; in experiment [1] (dose group 0.3 mg/kg), 48.5 ± 5.2 cmH2O; in experiment [1] (dose group 1 mg/kg), 49.4 ± 1.4 cmH2O; in experiment [2] (baseline) it was 48.7 ± 5.3 cmH2O. Also, in experiment [1] (intravenous administration), the “dose at which a significant effect on the leak point pressure was afforded” value is on record as “not less than 0.03 mg/kg”. In experiment [1] (intravenous administration), the “effect on leak point pressure” value was “dose-dependently increased the leak point pressure”.

As for `CNCC[C@H](Oc1cccc2ccccc12)c1cccs1` [duloxetine], the “leak point pressure after drug administration” value in experiment [3] (0.3 mg/kg) is listed as 48.3 ± 7.9 cmH2O; in experiment [3] (1 mg/kg), 53.0 ± 4.8 cmH2O; in experiment [3] (3 mg/kg), 61.4 ± 3.9 cmH2O; in experiment [3] (10 mg/kg), 53.0 ± 8.8 cmH2O. For the same molecule, the “leak point pressure increase” value in experiment [3] (0.3 mg/kg) is recorded as 2.4 ± 4.3 cmH2O; in experiment [3] (1 mg/kg), 8.1 ± 2.3 cmH2O; in experiment [3] (3 mg/kg), 12.9 ± 3.2 cmH2O; in experiment [3] (10 mg/kg), 13.0 ± 2.5 cmH2O. For the same molecule, the “leak point pressure before drug administration” value is listed as 45.9 ± 5.4 cmH2O in experiment [3] (dose group 0.3 mg/kg), 44.9 ± 5.9 cmH2O in experiment [3] (dose group 1 mg/kg), 48.5 ± 4.8 cmH2O in experiment [3] (dose group 3 mg/kg) and 40.0 ± 7.3 cmH2O in experiment [3] (dose group 10 mg/kg). Further, the “effect on leak point pressure, comparison before and after administration” value in experiment [3] (intravenously administered) was “significant increase in the leak point pressure”.

The values are drawn from patent US8685924B2, “Preventives/remedies for stress urinary incontinence and method of screening the same” (Takeda Pharmaceutical Company Limited, priority 2004, dated 2014).
